Source: patent publication US20230085307A1, “PYRIDAZINONE COMPOUND AND HERBICIDE” (NISSAN CHEMICAL CORPORATION, priority 2019, published 2023)

Assays:
[1] = test system: velvetleaf; experiment: Test Example 5: herbicidal effect by foliage application, plastic box (Table 20, symbol M); format: in vivo, velvetleaf (Abutilon theophrasti); details: foliage application, 320 g/ha, evaluated three weeks after application
In short: (§1)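 Plants were sown into sterilized diluvial soil under about 1.5 cm cover and kept in a greenhouse at 25° C. to 30° C. Fourteen days on, foliage received an even spray of the diluted emulsion. Herbicidal or crop effect was judged three weeks afterwards.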

[2] = test system: redroot pigweed; experiment: Test Example 5: herbicidal effect by foliage application, plastic box (Table 20, symbol N); format: in vivo, redroot pigweed (Amaranthus retroflexus); details: foliage application, 320 g/ha, evaluated three weeks after application
In short: as §1

[3] = test system: chickweed; experiment: Test Example 4: herbicidal effect by soil treatment (Table 19, symbol P); format: in vivo, common chickweed (Stellaria media); details: amount of applied herbicide 320 g/ha
In short: (§2)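 Pre-emergence style soil spray: seeds under ~1.5 cm sterilized diluvial soil received a uniform coat of emulsion diluted to the predetermined herbicide amount. Greenhouse 25–30° C; readout at week three on previously defined criteria.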

[4] = test system: blackgrass; experiment: Test Example 4: herbicidal effect by soil treatment (Table 19, symbol J); format: in vivo, blackgrass (Alopecurus myosuroides); details: amount of applied herbicide 320 g/ha
In short: as §2

[5] = test system: lambsquarters; experiment: Test Example 5: herbicidal effect by foliage application, plastic box (Table 20, symbol O); format: in vivo, lambsquarters (Chenopodium album); details: foliage application, 320 g/ha, evaluated three weeks after application
In short: as §1

[6] = test system: barnyard grass; experiment: Test Example 5: herbicidal effect by foliage application, plastic box (Table 20, symbol H); format: in vivo, barnyard grass (Echinochloa crus-galli); details: foliage application, 320 g/ha, evaluated three weeks after application
In short: as §1

[7] = test system: blackgrass; experiment: Test Example 5: herbicidal effect by foliage application, plastic box (Table 20, symbol J); format: in vivo, blackgrass (Alopecurus myosuroides); details: foliage application, 320 g/ha, evaluated three weeks after application
In short: as §1

[8] = test system: green foxtail; experiment: Test Example 5: herbicidal effect by foliage application, plastic box (Table 20, symbol G); format: in vivo, green foxtail (Setaria viridis); details: foliage application, 320 g/ha, evaluated three weeks after application
In short: as §1

[9] = test system: barnyard grass; experiment: Test Example 4: herbicidal effect by soil treatment (Table 19, symbol H); format: in vivo, barnyard grass (Echinochloa crus-galli); details: amount of applied herbicide 320 g/ha
In short: as §2

[10] = test system: velvetleaf; experiment: Test Example 4: herbicidal effect by soil treatment (Table 19, symbol M); format: in vivo, velvetleaf (Abutilon theophrasti); details: amount of applied herbicide 320 g/ha
In short: as §2

[11] = test system: Italian ryegrass; experiment: Test Example 5: herbicidal effect by foliage application, plastic box (Table 20, symbol K); format: in vivo, Italian ryegrass (Lolium multiflorum); details: foliage application, 320 g/ha, evaluated three weeks after application
In short: as §1

[12] = test system: lambsquarters; experiment: Test Example 4: herbicidal effect by soil treatment (Table 19, symbol O); format: in vivo, lambsquarters (Chenopodium album); details: amount of applied herbicide 320 g/ha
In short: as §2

[13] = test system: southern crabgrass; experiment: Test Example 5: herbicidal effect by foliage application, plastic box (Table 20, symbol F); format: in vivo, southern crabgrass (Digitaria ciliaris); details: foliage application, 320 g/ha, evaluated three weeks after application
In short: as §1

[14] = test system: windgrass; experiment: Test Example 5: herbicidal effect by foliage application, plastic box (Table 20, symbol L); format: in vivo, windgrass (Apera spica-venti); details: foliage application, 320 g/ha, evaluated three weeks after application
In short: as §1

[15] = test system: windgrass; experiment: Test Example 4: herbicidal effect by soil treatment (Table 19, symbol L); format: in vivo, windgrass (Apera spica-venti); details: amount of applied herbicide 320 g/ha
In short: as §2

[16] = test system: chickweed; experiment: Test Example 5: herbicidal effect by foliage application, plastic box (Table 20, symbol P); format: in vivo, common chickweed (Stellaria media); details: foliage application, 320 g/ha, evaluated three weeks after application
In short: as §1

[17] = test system: persian speedwell; experiment: Test Example 4: herbicidal effect by soil treatment (Table 19, symbol R); format: in vivo, Persian speedwell (Veronica persica); details: amount of applied herbicide 320 g/ha
In short: as §2

[18] = test system: southern crabgrass; experiment: Test Example 4: herbicidal effect by soil treatment (Table 19, symbol F); format: in vivo, southern crabgrass (Digitaria ciliaris); details: amount of applied herbicide 320 g/ha
In short: as §2

[19] = test system: Italian ryegrass; experiment: Test Example 4: herbicidal effect by soil treatment (Table 19, symbol K); format: in vivo, Italian ryegrass (Lolium multiflorum); details: amount of applied herbicide 320 g/ha
In short: as §2

[20] = test system: redroot pigweed; experiment: Test Example 4: herbicidal effect by soil treatment (Table 19, symbol N); format: in vivo, redroot pigweed (Amaranthus retroflexus); details: amount of applied herbicide 320 g/ha
In short: as §2

[21] = test system: wild oat; experiment: Test Example 5: herbicidal effect by foliage application, plastic box (Table 20, symbol I); format: in vivo, wild oat (Avena fatua); details: foliage application, 320 g/ha, evaluated three weeks after application
In short: as §1

[22] = test system: wild oat; experiment: Test Example 4: herbicidal effect by soil treatment (Table 19, symbol I); format: in vivo, wild oat (Avena fatua); details: amount of applied herbicide 320 g/ha
In short: as §2

[23] = test system: green foxtail; experiment: Test Example 4: herbicidal effect by soil treatment (Table 19, symbol G); format: in vivo, green foxtail (Setaria viridis); details: amount of applied herbicide 320 g/ha
In short: as §2

[24] = test system: persian speedwell; experiment: Test Example 5: herbicidal effect by foliage application, plastic box (Table 20, symbol R); format: in vivo, Persian speedwell (Veronica persica); details: foliage application, 320 g/ha, evaluated three weeks after application
In short: as §1

COc1ccc(-c2sc3ccc(C)cc3c2-c2c(O)c(C)nn(C)c2=O)cc1 [2-140]
herbicidal effect on M: velvetleaf [1]: 4 (Herbicidal rate of 70% or more and less than 90%)
herbicidal effect on N: redroot pigweed [2]: 3 (Herbicidal rate of 40% or more and less than 70%)
P: chickweed, herbicidal effect rating [3]: 0 (Herbicidal rate of 5% or less (almost no effect))
J: blackgrass, herbicidal effect rating [4]: 0 (Herbicidal rate of 5% or less (almost no effect))
herbicidal effect on O: lambsquarters [5]: 3 (Herbicidal rate of 40% or more and less than 70%)
herbicidal effect on H: barnyard grass [6]: 0 (Herbicidal rate of 5% or less (almost no effect))
herbicidal effect on J: blackgrass [7]: 0 (Herbicidal rate of 5% or less (almost no effect))
herbicidal effect on G: green foxtail [8]: 0 (Herbicidal rate of 5% or less (almost no effect))
H: barnyard grass, herbicidal effect rating [9]: 0 (Herbicidal rate of 5% or less (almost no effect))
M: velvetleaf, herbicidal effect rating [10]: 3 (Herbicidal rate of 40% or more and less than 70%)
herbicidal effect on K: Italian ryegrass [11]: 0 (Herbicidal rate of 5% or less (almost no effect))
O: lambsquarters, herbicidal effect rating [12]: 0 (Herbicidal rate of 5% or less (almost no effect))
herbicidal effect on F: southern crabgrass [13]: 0 (Herbicidal rate of 5% or less (almost no effect))
herbicidal effect on L: windgrass [14]: 0 (Herbicidal rate of 5% or less (almost no effect))
L: windgrass, herbicidal effect rating [15]: 0 (Herbicidal rate of 5% or less (almost no effect))
herbicidal effect on P: chickweed [16]: 4 (Herbicidal rate of 70% or more and less than 90%)
R: persian speedwell, herbicidal effect rating [17]: 3 (Herbicidal rate of 40% or more and less than 70%)
F: southern crabgrass, herbicidal effect rating [18]: 0 (Herbicidal rate of 5% or less (almost no effect))
K: Italian ryegrass, herbicidal effect rating [19]: 0 (Herbicidal rate of 5% or less (almost no effect))
N: redroot pigweed, herbicidal effect rating [20]: 2 (Herbicidal rate of 20% or more and less than 40%)
herbicidal effect on I: wild oat [21]: 0 (Herbicidal rate of 5% or less (almost no effect))
I: wild oat, herbicidal effect rating [22]: 0 (Herbicidal rate of 5% or less (almost no effect))
G: green foxtail, herbicidal effect rating [23]: 0 (Herbicidal rate of 5% or less (almost no effect))
herbicidal effect on R: persian speedwell [24]: 5 (Herbicidal rate of 90% or more (almost completely withered))
